Entries after “also recorded” stand apart in the source; their conditions may differ.
Assays:
[1] = system: BMSCs homing (SDF-1/CXCR4 axis); experiment: Tracking of homing of labeled autologous BMSCs to the infarcted rabbit heart; assay type: in vivo, New Zealand white rabbits; settings: BMSCs incubated overnight with AMD3100
Method: (1) Adult male New Zealand white rabbits were preoperative fasted for 12 hours, and the operation room was sterilized by overnight ultraviolet radiation before the surgery. (2) Rabbits were anesthetized with 3 ml/kg chloral hydrate by intraperitoneal administration, and then placed on the operation table in the supine position. Hairs covering chest and limbs at electrode attachment site were shaved. The surgical area was scrubbed with povidone-iodine for 3 consecutive times. Lidocaine was injected into the subcutaneous area around the incision site. (3) Electrodes were attached to the limbs and ECG (electrocardiogram) was recorded 30 minutes before and after the surgery. (4) The rabbits were subjected to a median sternotomy. The skin was cut and the s.c. tissue and the muscular was dissected. Afterwards, the sternum was retracted and the pleuron was dissected, the pleural space was opened and so the pericardium was exposed. (5) After gently incision of the pericardium, the heart was exposed and the left circumflex branch (LC) was ligated. […] (6) Color changes of the anterior ventricular wall, the difference of left ventricular wall motion, and alterations including ST segment recorded by electrodes II, III, and aVF in ECG was monitored for 2 minutes to ensure that the ligation was successful. […]

[2] = system: isolated rat aortic rings; experiment: Isolated rat aortic ring assay for angiogenesis; assay type: cell-based, Sprague Dawley rats; settings: 8 days
Text: Thoracic aortas were removed from 8- to 10-week-old male Sprague Dawley (SD) rats (292-307 g) and immediately transferred to a culture dish containing ice-cold serum-free endothelial basal medium-2 (EBM-2, Lonza Cologne AG). The periaortic fibroadipose tissue was carefully removed with fine microdissecting forceps and iridectomy scissors; paying special attention not to damage the aortic wall. One-millimeter long aortic rings were sectioned and extensively rinsed in five consecutive washes with EBM-2.
Forty-eight well tissue culture grade plates were covered with 100 μl of matrigel (GFR, BD) and allowed to gel for 45 min at 37° C., 5% CO2. Aortic rings were placed on the matrigel-coated wells, covered with an additional 100 μl matrigel and allowed to gel again for 45 min at 37° C., 5% CO2. The culture was then added 250 μl EBM-2 containing 1% fetal bovine serum (FBS). Copper sulfide solution was added to the culture at a final concentration of 5, 25, 50 or 100 μM copper element. The growth media were removed and replaced every 2 days. Aortic rings were photographed on Day 8.
The area of angiogenic sprouting was calculated using the Image J software program (NIH, Bethesda, Md.). Microvessel densities are reported in square pixels.
(§1) Aortic rings were cultured in 48-well plates in 250 μl EBM-2 (1% FBS) media containing anti-VEGF antibody (Santa Cruz, Calif., USA) at a final concentration of 2 ng/ml. The treatment and angiogenesis assay were the same as above.

HIF-1 = experiment: Hypoxia-induced activation of HIF-1 in HepG2 cells; assay type: cell-based, human
Text: There are multiple sites that potentially require copper for activation of HIF-1, including HIF-1α synthesis, stabilization, translocation from cytosol to nucleus, binding to the HRE sequence of target genes, and HIF-1 transcriptional complex formation. We have specifically determined the mechanism of action of copper in regulation of HIF-1 transcriptional activity in human hepatoma HepG2 cells. […] This CCS gene silencing result excludes possible confounding effect on nonspecific chelation by TEPA. […] Therefore, it was concluded that copper is required for HIF-1 activation through regulation of HIF-1α binding to the HRE and the formation of HIF-1 transcriptional complex. Copper deficiency thus suppresses HIF-1 transcriptional activity by FIH-1 depression.

VEGF = experiment: Western blotting analysis of VEGF in isolated rat aortic rings; assay type: cell-based, Sprague Dawley rats; settings: for production of VEGF (protein level): 8 days
Method: Protein extracts were obtained after lysing rat aortic rings with matrigel in the radio immunoprecipitation assay (RIPA) lysis buffer (Beyotime, Jiangsu, CN) containing 1% complete ethylene diamine tetraacetic acid (EDTA)-free protease inhibitor cocktail (Roche, Mannhein, DE) for 30 min on ice. Equal loading of protein was assured by prior quantitation using a bicinchoninic acid (BCA) protein assay kit (Thermo, Rockford, USA). An appropriate amount of protein in total lysates was resolved in a sodium dodecyl sulfate (SDS)-polyacrylamide electrophoresis gel and transferred onto a polyvinylidene difluoride membrane (Bio-rad, USA). Membranes were blocked for 1 h in Tris-buffered saline/Tween 20 (TBST) (10 mM Tris.HCl, pH 8.0, 150 mM NaCl and 0.1% Tween 20) containing 5% nonfat dry milk and incubated overnight at 4° C. with the primary mouse anti-VEGF antibody (Santa Cruz, Calif., USA) and mouse antibeta actin antibody (ZSGB-BIO, Beijing, CN) diluted in the blocking buffer. After washing with TBST, the membranes were incubated with a horseradish peroxidase (HRP)-linked antimouse immunoglobulin G (IgG) antibody (ZSGB-BIO, Beijing, CN) diluted in TBST for 1 h at room temperature. Target proteins were visualized using a chemiluminescence HRP substrate (Millipore, Billerica, USA).
as §1

[3] = copper at concentrations above 50 μM

For `c1cc(CN2CCCNCCNCCCNCC2)ccc1CN1CCCNCCNCCCNCC1` [AMD3100], the “homing of AMD3100 treated BMSCs to Cu-albumin-microbubble treated chronic ischemic area” value ([1]; 6 months after MI surgery, Cu-albumin-microbubble treated) was “homing signals could not be observed; also recorded: no BMSCs homing signal” and the “homing of AMD3100 treated BMSCs to acute cardiac infarct area” value ([1]; within 1 month after MI surgery) was “could not home cardiac infarct area; also recorded: significant decrease of BMSCs homing signals”.

In the case of `NCCNCCNCCNCCN` [TEPA, tetraethylenepentamine], the “copper promotion of angiogenesis, TEPA with copper” value ([2]; 25 μM TEPA simultaneously with 5 μM copper) is reported as “blocked; also recorded: completely suppressed the angiogenic promotion effect of 5 μM copper”, the “angiogenesis, TEPA alone” value ([2]; 25 μM TEPA) is reported as “caused an inhibition of angiogenesis” and the “hypoxia-induced activation of HIF-1” value (HIF-1) is reported as “suppressed hypoxia-induced activation of HIF-1”. The VEGF levels (VEGF; 25 μM TEPA, with or without 5 μM copper) was “significantly decreased VEGF levels”.

For Copper sulfide, the “angiogenesis (area of angiogenic sprouting)” value ([2]; 5 μM copper, EBM-2 with 1% FBS) was “stimulated the vascular formation; also recorded: strongest promotion effect on the angiogenesis”, the “angiogenesis (area of angiogenic sprouting)” value [2, 3] was “lost the pro-angiogenesis effect; also recorded: significantly inhibitory effect” and the “production of VEGF (protein level)” value (VEGF; 5 μM copper) was “did not enhance the production of VEGF”. For the same molecule, the “production of VEGF (protein level)” value (VEGF; [3]) was “significantly increased the production of VEGF”.
